Experimental data: patent US6462016B1 (Shiseido Company, Ltd., priority 1995, dated 2002)

What was measured:
[1] = system: rat pancreas smooth muscle MILE cell; experiment: cAMP production in MILE cell; assay type: cell-based
[2] = target: maxadilan receptor in crude membrane fraction from the rabbit spleen; experiment: Binding test (tissue): 125I-Max, rabbit spleen crude membrane fraction; settings: read-out: dissociation constant (Kd)
Experimental: (§1) Likewise, crude membrane fractions were prepared, respectively, from the brain, liver, pancreas, spleen, aorta and kidney of a rabbit, and the brains of a rat, a mouse, cattle and a human being.
(§2) After completion of the reaction, ^125I-Max bound to the membrane was separated by subjecting the resultant incubation matter to suction filtration using a GF/C glass filter (Whatman GF/C), and the radioactivity of the glass filter after being dried was measured by a γ-counter.

[3] = target: T1, maxadilan receptor in crude membrane fraction from the mouse brain (Mus musculus, UniProt P70205); experiment: Binding test (tissue): 125I-Max, mouse brain crude membrane fraction
T1 construct: Likewise, crude membrane fractions were prepared; from tissue; host or cells: mouse brain, crude membrane fraction
T1 sequence (P70205 21-496): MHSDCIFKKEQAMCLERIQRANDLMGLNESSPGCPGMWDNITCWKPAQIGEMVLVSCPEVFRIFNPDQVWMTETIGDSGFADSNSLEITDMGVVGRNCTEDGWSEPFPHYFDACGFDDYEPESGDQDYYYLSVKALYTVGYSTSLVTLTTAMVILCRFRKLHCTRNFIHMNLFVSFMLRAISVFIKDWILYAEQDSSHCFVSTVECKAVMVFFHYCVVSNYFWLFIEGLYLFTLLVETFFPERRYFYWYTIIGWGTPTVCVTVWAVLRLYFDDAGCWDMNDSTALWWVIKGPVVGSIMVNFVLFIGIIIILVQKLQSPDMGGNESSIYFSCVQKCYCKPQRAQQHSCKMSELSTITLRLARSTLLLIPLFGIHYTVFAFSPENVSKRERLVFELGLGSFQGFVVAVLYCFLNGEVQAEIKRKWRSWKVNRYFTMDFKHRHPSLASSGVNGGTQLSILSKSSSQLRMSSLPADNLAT
Experimental: as §1, §2

rabbit skin = assay type: in vivo
[4] = system: rat adrenal medulla melanocytoma PC-12; assay type: cell-based
NBf1 cell = experiment: cAMP production in NBf1 cell; assay type: cell-based, human
[5] = target: T2, maxadilan receptor in crude membrane fraction from the rat brain (Rattus norvegicus, UniProt P32215); experiment: Binding test (tissue): 125I-Max, rat brain crude membrane fraction
T2 construct: Likewise, crude membrane fractions were prepared; from tissue; host or cells: rat brain, crude membrane fraction
T2 sequence (P32215 20-523): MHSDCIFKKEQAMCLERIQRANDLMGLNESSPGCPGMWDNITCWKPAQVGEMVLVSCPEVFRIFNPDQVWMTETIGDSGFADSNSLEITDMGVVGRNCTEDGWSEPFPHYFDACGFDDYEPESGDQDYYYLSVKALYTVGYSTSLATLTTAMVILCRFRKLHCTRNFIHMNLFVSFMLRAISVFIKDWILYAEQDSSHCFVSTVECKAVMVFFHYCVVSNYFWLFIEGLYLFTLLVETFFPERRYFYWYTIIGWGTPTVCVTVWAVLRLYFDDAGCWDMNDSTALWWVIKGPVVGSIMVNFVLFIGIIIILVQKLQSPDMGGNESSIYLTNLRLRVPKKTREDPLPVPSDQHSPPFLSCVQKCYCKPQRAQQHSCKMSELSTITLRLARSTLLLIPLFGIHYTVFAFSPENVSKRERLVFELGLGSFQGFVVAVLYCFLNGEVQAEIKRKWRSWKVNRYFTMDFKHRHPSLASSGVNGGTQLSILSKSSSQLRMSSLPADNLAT
Experimental: as §1, §2

[6] = target: T3, maxadilan receptor in crude membrane fraction from the brain of a human being (Homo sapiens, UniProt P41586); experiment: Binding test (tissue): 125I-Max, human brain crude membrane fraction
T3 construct: Likewise, crude membrane fractions were prepared; from tissue; host or cells: human brain, crude membrane fraction
T3 sequence (P41586 21-468): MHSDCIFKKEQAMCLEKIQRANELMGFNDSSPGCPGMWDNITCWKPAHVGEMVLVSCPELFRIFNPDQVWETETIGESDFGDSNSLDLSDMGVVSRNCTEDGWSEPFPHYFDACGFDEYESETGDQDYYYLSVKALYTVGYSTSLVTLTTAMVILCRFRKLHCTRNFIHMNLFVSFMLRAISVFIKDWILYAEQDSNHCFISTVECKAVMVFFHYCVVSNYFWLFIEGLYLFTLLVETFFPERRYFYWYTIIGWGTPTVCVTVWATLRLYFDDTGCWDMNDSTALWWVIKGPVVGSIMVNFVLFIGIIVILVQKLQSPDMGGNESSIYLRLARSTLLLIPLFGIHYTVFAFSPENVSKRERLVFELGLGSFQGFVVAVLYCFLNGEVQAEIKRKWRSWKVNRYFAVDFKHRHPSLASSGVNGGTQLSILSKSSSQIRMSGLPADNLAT
Experimental: as §1, §2

[7] = target: T4, maxadilan receptor in crude membrane fraction from the cattle brain (Bos taurus, UniProt Q29627); experiment: Binding test (tissue): 125I-Max, cattle brain crude membrane fraction
T4 construct: Likewise, crude membrane fractions were prepared; from tissue; host or cells: cattle brain, crude membrane fraction
T4 sequence (Q29627 38-513): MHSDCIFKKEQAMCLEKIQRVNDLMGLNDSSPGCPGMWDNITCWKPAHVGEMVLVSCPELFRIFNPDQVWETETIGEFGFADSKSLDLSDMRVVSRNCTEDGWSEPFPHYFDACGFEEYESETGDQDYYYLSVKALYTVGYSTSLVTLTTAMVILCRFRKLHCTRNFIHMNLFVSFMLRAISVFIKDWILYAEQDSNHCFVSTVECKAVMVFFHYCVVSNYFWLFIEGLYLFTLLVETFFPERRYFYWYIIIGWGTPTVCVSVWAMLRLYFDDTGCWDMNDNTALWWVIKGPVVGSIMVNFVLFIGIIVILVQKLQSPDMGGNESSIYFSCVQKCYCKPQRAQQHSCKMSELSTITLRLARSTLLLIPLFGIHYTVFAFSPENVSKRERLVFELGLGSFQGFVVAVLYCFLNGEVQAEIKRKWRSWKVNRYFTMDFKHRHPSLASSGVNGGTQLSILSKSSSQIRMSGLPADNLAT
Experimental: as §1, §2

With maxadilan the cAMP production [1] was “likewise observed”, the Kd [2] was 0.055 nM and the “maximum binding amount (Bmax)” value [3] was 53 fmol/mg. The Erythema formation activity (rabbit skin; 50 μl dilutions at various concentrations intracutaneously into white rabbits, observed 30 minutes and 2 hours after injection) was 10^−12, the “erythema formation action (in words)” value (rabbit skin; intracutaneous injection, rabbit) was “superior to that of natural maxadilan” and the cAMP production ([4]; PC-12 cell (1×10^6), 37° C. 10 minutes) was “significantly promotes cAMP production”. The “time course of cAMP production after stimulation” value ([4]; PC-12 cell, 100 nM maxadilan, 37° C., various time) was “conducted in an instant”, the cAMP production (NBf1 cell) was “likewise observed” and the “maximum binding amount (Bmax)” value [5] was 68 fmol/mg. For the same substance, the “specific binding to crude membrane fraction” value [6] was “specific binding of Max is also recognized”, the “maximum binding amount (Bmax)” value [7] was 17 fmol/mg and the “specific binding to crude membrane fraction” value [7] was “specific binding of Max is also recognized”.
